Results on seven molecules are retold here after US5061730A, “Carboxylic acid derivatives” (Fujisawa Pharmaceutical Co., Ltd., priority 1987, dated 1991).

One data set can be described thus: Solubility. In kind it is physicochemical. The note with it: disodium salt.
The next data set concerns ICR mice. The data set is described as follows: Acute toxicity, single intravenous injection. Type of data set: in vivo. Conditions: 1 g/kg single intravenous, female, 4 weeks old. How it is done: The acute toxicity of the test compound No.1 was determined to ICR mice (female, 4 weeks old) by a single intravenous injection.
Data set [1] has as its system leucineaminopeptidase (LAP). Kind of data set: Effect on other metalloenzymes: leucineaminopeptidase. Conditions: at 50,000 ng/ml; porcine kidney microsomes enzyme. In kind it is biochemical. How it is done:
(§1) DHP-I is a metalloenzyme with the zinc atom. To clarify the specific inhibitors activity of the test compound on DHP-I, the effect of the test compound on other metalloenzymes containing zinc, carboxypeptidaseA (CPaseA), leucineaminopeptidase (LAP), was determined.
Activity of LAP from porcine kidney microsomes (Type IV-S, made by Sigma Chemical Co.) was measured by . mean of using L-leucine-p-nitroanilide (made by Peptide Institute, Inc.) as substrate. Enzymatic hydrolysis was followed by observing the increase in optical density at 405 nm.

Another data set concerns Staphylococcus aureus. Kind of data set: Antimicrobial activity, paper disk diffusion method. Conditions: at 1 mg/ml. In kind it is cell-based. How it is done:
(§2) Antimicrobial activity of the test compounds No.1 and No.2. was measured by paper disk diffusion method in a conventional manner.

For another data set, the system named is Escherichia coli. The description is as above. In kind it is cell-based. The note with it: at 1 mg/ml. How it is done:
as §2

Data set [2] deals with carboxypeptidaseA (CPaseA). The data set is described as follows: Effect on other metalloenzymes: carboxypeptidase A. In kind it is biochemical. The note with it: at 50,000 ng/ml; bovine pancreas enzyme. How it is done:
as §1
Activity of CPaseA from bovine pancreas (Type II-DEF, made by Sigma Chemical Co.) was measured by mean of using carbobenzoxyglycyl-L-phenylalanine (made by Peptide Institute, Inc., Osaka, Japan) as substrate. Enzymatic hydrolysis was followed by observing the fall in optical density at 224 nm.

In data set [3] the target is T1, DHP-I (renal dipeptidase) (Oryctolagus cuniculus, UniProt P31429).
T1 construct: Fresh kidney cortex was cut into pieces and homogenized in a Waring blender; from tissue; host or cells: kidney cortex (rabbit), n-butanol extraction, ammonium sulfate fraction 50-75%
T1 sequence (P31429 17-410): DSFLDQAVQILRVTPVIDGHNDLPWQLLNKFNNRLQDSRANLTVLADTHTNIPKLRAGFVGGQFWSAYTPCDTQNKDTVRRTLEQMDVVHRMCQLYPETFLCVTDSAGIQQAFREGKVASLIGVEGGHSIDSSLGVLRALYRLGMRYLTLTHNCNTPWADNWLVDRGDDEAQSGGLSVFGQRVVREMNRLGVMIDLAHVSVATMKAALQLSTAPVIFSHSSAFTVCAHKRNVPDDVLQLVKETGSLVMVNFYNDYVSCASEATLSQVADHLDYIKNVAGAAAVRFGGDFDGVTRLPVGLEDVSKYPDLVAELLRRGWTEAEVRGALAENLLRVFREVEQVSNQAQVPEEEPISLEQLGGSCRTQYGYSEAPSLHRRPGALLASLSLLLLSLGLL
The data set is described as follows: Inhibition of DHP-I activity, rabbit DHP-I. In kind it is biochemical. The note with it: glycyldehydrophenylalanine substrate. Here is the method: (§3) DHP-I (renal dipeptidase) were partially purified from several species of animals by B. J. Cambell (Methods in Enzymology, (1970) Vol. 19,722). Fresh kidney cortex was cut into pieces and homogenized in a Waring blender with an equal volume of 1/15M phosphate buffer (pH 8.0). The homogenate was filtrated on gauze to remove cellular debris. n-Butanol chilled to 0° C., was added to a concentration of 20% by volume with rapid stirring. The suspension was stirred with a magnetic stirrer for overnight at 4° C. to dissolve DHP-I. The resultant emulsion was then dialyzed against several changes of distilled water. To the dialyzate was added solid ammonium sulfate to 50% saturation at 0° C. The precipitate formed was collected by centrifugation at 4500 g for 1 hour and discarded. Solid ammonium sulfate was then added to the supernatant to 75% saturation, the suspension was centrifuged at 10,000 g for 1 hour. The sediment was dissolved in a small volume of distilled water and dialyzed against distilled water. […]
(§4) Activity of DHP-I was measured by mean of using the unsaturated dipeptide, glycyldehydrophenylalanine as substrate. […] Inhibitory effect of the test compound on DHP-I activity was measured. Inhibition percent, I(%), was calculated as followed, I(%)=(E-T)/Ex100, where E was DHP-I activity without test compound (Control), T was DHP-I activity with test compound.

Data set [4] concerns the target T2, DHP-I (renal dipeptidase) (Sus scrofa, UniProt P22412).
T2 construct: Fresh kidney cortex was cut into pieces and homogenized in a Waring blender; from tissue; host or cells: kidney cortex (pig), n-butanol extraction, ammonium sulfate fraction 50-75%
T2 sequence (P22412 17-409): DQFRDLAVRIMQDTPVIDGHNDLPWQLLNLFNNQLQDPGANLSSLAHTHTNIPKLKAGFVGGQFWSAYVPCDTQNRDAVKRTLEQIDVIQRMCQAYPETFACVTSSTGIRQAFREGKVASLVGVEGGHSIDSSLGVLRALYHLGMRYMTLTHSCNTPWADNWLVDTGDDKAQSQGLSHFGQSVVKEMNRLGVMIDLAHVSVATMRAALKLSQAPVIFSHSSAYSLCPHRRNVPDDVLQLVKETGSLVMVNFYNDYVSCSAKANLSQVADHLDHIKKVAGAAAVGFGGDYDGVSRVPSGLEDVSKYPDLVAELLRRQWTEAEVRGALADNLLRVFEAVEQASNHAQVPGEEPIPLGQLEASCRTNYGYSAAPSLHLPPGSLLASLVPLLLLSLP
The data set is described as follows: Inhibition of DHP-I activity, porcine DHP-I. The note with it: glycyldehydrophenylalanine substrate. Type of data set: biochemical. Here is the method: as §3, §4

The nature of data set [5]: Urinary recovery of carbapenem antibiotics combined with DHP-I inhibitor. In kind it is in vivo, ICR mice. Conditions: for dose excreted: mouse, urine, iv, 1 mg/kg, antibiotic 1 mg/kg i.v., ICR mice. How it is done:
The effect of the test compound No.1 on urinary recovery of carbapenem antibiotics simultaneously administrated was determined. Urinary recovery percent was calculated by measuring a quantity of antibiotics excreted in urine using bioassay, when antibiotics and DHP-I inhibitor were combined and intravenously injected to ICR mice (female, 4 weeks old, 4 animals per group).

A further data set has as its system Staphylococcus aureus 47. The data set is described as follows: Protective effect of carbapenem antibiotic combined with DHP-I inhibitor on mice infection. In kind it is in vivo. The note with it: Test compound No. 4 alone 10 mg/kg s.c., 1 hour after challenge; ICR mice. Here is the method:
The combined effect of DHP-I inhibitor of this invention with the carbapenem antibiotic, on mice infection was determined. ICR mice (female, 4 weeks old, 5 animals per group) were intraperitoneally injected with 4×10^8 Staphylococcus aureus 47 suspended in 5% mucin. Combined therapies were administrated subcutaneously 1 hour after challenge.

The conditions of data set [6]: literature; cited from earlier work.
Where [7] appears, read: with Test compound No. 1, 0.5 mg/kg.
[8] abbreviates: with Test compound No. 1, 1 mg/kg.
Setting [9] is: with Test compound No. 1, 2 mg/kg.

With `O=C(O)CCC(O)(C(=O)O)C(=O)NO` (centres unmarked) [WS-1358B], in “Solubility”, the Solubility in acetone entry is “Insoluble”, the Solubility in chloroform entry was “Insoluble”, the Solubility in ethanol result is recorded as “Sparingly Soluble” and the “Solubility in ethyl acetate” value is recorded as “Insoluble”. Besides, in the data set “Solubility”, the Solubility in hexane entry was “Insoluble”, the Solubility in methanol result is given as “Sparingly Soluble” and the Solubility in water entry is “Soluble”.
Consider `CC(CC(=O)O)C(O)(C(=O)O)C(=O)NO` (centres unmarked) [Test compound No. 1], for which the “Acute toxicity, toxic symptom” value in the data set with ICR mice is recorded as “No toxic symptom was observed”. The “Inhibitory effect on LAP” value in [1] was “no inhibitory effect”. Also, the Antimicrobial activity entry in the data set on Staphylococcus aureus and with Escherichia coli was “no antimicrobial activity” throughout. Also, the “Inhibitory effect on CPaseA” value in data set [2] is “no inhibitory effect”. For the same molecule, the half-maximal inhibitory concentration (IC50) in data set [3] was 49.7 nM; in data set [4], 4.97 nM. The “Effect on urinary recovery of the carbapenem antibiotics” value in [5] (effect of inhibitor on test compound No. 3 and 4 (1 mg/kg), in words) is “significantly increased urinary recovery”.
In the case of `CC(CC(=O)O)C(O)(C(=O)O)C(=O)NO` (centres unmarked) [WS-1358A, 2-hydroxy-2-(hydroxycarbamoyl)-3-methylglutaric acid], in “Solubility”, the Solubility in acetone entry is on record as “Insoluble”, the Solubility in chloroform result was “Insoluble”, the Solubility in ethanol result is listed as “Sparingly Soluble” and the “Solubility in ethyl acetate” value is given as “Insoluble”. In addition, in “Solubility”, the Solubility in hexane result is recorded as “Insoluble”, the Solubility in methanol result is recorded as “Sparingly Soluble” and the Solubility in water result is “Soluble”.
Turning to `C[C@@H](O)[C@H]1C(=O)N2C(C(=O)O)=C(S[C@@H]3CN[C@H](COC(N)=O)C3)CC12` (some centres unmarked) [Test compound No. 4], in the data set with Staphylococcus aureus 47, the “Survived/Treated (Test mice)” value is on record as 0/5. In addition, the dose excreted in [5] (inhibitor: None) worked out at 29.3 ± 2.8%; in data set [5] (setting [7]) it was 51.4 ± 3.9%; in data set [5] (setting [8]), 57.8 ± 1.3%; in data set [5] (setting [9]), 71.9 ± 9.5%.
Regarding `C[C@@H](O)[C@H]1C(=O)N2C(C(=O)O)=C(SCCNC=N)CC12` (some centres unmarked) [Test compound No. 3], the dose excreted in [5] (inhibitor: None) was 44.1 ± 0.6%; in [5] (setting [7]) it was 66.1 ± 3%; in data set [5] (setting [8]), 63.8 ± 7.3%; in [5] (setting [9]) it was 65.4 ± 9.5%.
In the case of `O=C(O)CCC(O)(C(=O)O)C(=O)NO` (centres unmarked) [Test compound No. 2], in [1], the “Inhibitory effect on LAP” value is “no inhibitory effect”. In addition, the Antimicrobial activity entry with Staphylococcus aureus and in the data set with Escherichia coli was “no antimicrobial activity” each time. For the same molecule, the “Inhibitory effect on CPaseA” value in [2] is on record as “no inhibitory effect”. Further, the IC50 in data set [3] was 2410 nM; in data set [4] it was 531 nM.
`CC1(C)C[C@@H]1C(=O)N/C(=C\CCCCSC[C@H](N)C(=O)O)C(=O)O` [cilastatin]: in data set [6], the “Urinary recoveries of the carbapenem antibiotics (e.g. imipenem)” value was “improving urinary recoveries”.
